The structures appear in SMILES notation.

In general, IC50 refers to the concentration at which inhibition is half-maximal.

The target in one experiment is T1, hITK enzyme (FLAG-tagged full-length hITK) (Homo sapiens, UniProt Q08881).
T1 construct: strongly expressing FLAG-tagged full-length hITK in Sf9 cells; FLAG; made in house; host or cells: Sf9 insect cells (ITK); Escherichia coli (GST-SLP76 substrate)
T1 sequence (Q08881 1-620): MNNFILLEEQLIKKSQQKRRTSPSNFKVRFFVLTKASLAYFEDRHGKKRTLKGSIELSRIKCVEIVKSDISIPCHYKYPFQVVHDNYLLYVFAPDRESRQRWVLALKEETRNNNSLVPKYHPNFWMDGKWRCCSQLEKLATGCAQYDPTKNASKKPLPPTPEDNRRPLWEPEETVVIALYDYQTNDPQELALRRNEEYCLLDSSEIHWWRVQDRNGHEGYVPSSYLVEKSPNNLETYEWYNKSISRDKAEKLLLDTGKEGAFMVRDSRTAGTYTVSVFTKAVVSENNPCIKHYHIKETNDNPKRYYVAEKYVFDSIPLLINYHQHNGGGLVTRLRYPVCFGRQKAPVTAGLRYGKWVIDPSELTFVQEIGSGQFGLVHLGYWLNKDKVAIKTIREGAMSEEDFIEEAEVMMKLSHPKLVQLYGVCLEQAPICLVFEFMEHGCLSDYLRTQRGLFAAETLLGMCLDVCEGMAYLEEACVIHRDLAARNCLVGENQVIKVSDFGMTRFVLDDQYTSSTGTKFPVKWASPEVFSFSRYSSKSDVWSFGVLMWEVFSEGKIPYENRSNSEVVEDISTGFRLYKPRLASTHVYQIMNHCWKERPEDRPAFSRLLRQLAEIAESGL
Put plainly: ITK inhibitory activity (HTRF kinase assay, biotinylated GST-SLP76 substrate). The format is biochemical. To be noted: IC50 calculated from the 2 test compound concentrations sandwiching 50% ITK inhibitory rate. In a few lines: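 Sf9-expressed hITK (50 ng/mL enzyme solution) reacted 10 min at RT in MOPS pH 7.0, 10 mmol/L MgCl2, 1 mmol/L DTT with E. coli SLP76 aa95–175 substrate; substrate solution held 100 µmol/L ATP (6 µmol/L for selected compounds). HTRF 665/620 ratio, blank-corrected; IC50 interpolated between two concentrations bracketing 50% inhibition.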
Take `C[C@@H]1CCc2c(-c3cc4ccc(N(C)C(=O)c5ccccc5)cc4[nH]3)n[nH]c2C1` [Example 358]: the IC50 was 38 nM.
For `CC1(C)CCc2c(-c3cc4ccc(N5CCC(CO)C5=O)cc4[nH]3)n[nH]c2C1` (stereo not shown) [Example 228], the IC50 was 40 nM.
Turning to `CN(C(=O)COC1CCCOC1)c1ccc2cc(-c3n[nH]c4c3CCC(C)(C)C4)[nH]c2c1` (stereo not shown) [Example 123], the IC50 is 2 nM.
As to `CN(C(=O)CCO)c1ccc2cc(-c3n[nH]c4c3CCC(C)(C)C4)[nH]c2c1` [Example 63], the IC50 is 6 nM.
On the same count and under the same terms, in the case of `COCCN(C(=O)CN1CCCCC1=O)c1ccc2cc(-c3n[nH]c4c3CCC(C)(C)C4)[nH]c2c1` [Example 287] it was 1 nM; in that of `CCC(=O)Nc1ccc2[nH]c(-c3n[nH]c4c3CCC(C)(C)C4)cc2c1` [Example 345], 88 nM.
Consider `COCCN(C(=O)CN1CCOCC1=O)c1ccc2cc(-c3n[nH]c4c3CCC(C)(C)C4)[nH]c2c1` [Example 286], for which the 50% inhibitory concentration (IC50) is 2 nM.
Turning to `CC1(C)CCc2c(-c3cc4cc(C(=O)NC(C)(C)C(=O)O)ccc4[nH]3)n[nH]c2C1` [Example 326], the IC50 is 42 nM.
Same read-out and setting: the figure for `COc1nnc(NC(=O)c2ccc3[nH]c(-c4n[nH]c5c4CCC(C)(C)C5)cc3c2)s1` [Example 325] is 246 nM; for `CN(C(=O)c1ccc2cc(-c3n[nH]c4c3CCC(C)(C)C4)[nH]c2c1)c1ccccc1` [Example 10] it is 45 nM.
Take `CC(=O)N1CCC(C(=O)N(C)c2ccc3cc(-c4n[nH]c5c4CCC(C)(C)C5)[nH]c3c2)CC1` [Example 64]: the half-maximal inhibitory concentration (IC50) was 6 nM.
The same measure, in the same setting: in the case of `CN(C)CCCN(C(=O)C1CCCCC1)c1ccc2cc(-c3n[nH]c4c3CCC(C)(C)C4)[nH]c2c1` [Example 218] it was less than 3 nM; in that of `CN(C(=O)CN1CCCCC1=O)c1ccc2cc(-c3n[nH]c4c3CCC(C)(C)C4)[nH]c2c1` [Example 105], 2 nM.
As for `CC1COCC(=O)N1C(C)C(=O)N(C)c1ccc2cc(-c3n[nH]c4c3CCC(C)(C)C4)[nH]c2c1` (stereo not shown) [Example 153], the IC50 is 5 nM.
Same read-out and setting: in the case of `COC[C@@H]1CCC(=O)N1CC(=O)N(C)c1ccc2cc(-c3n[nH]c4c3CCC(C)(C)C4)[nH]c2c1` [Example 197] it was 2 nM; in that of `CN(C(=O)CN1CCC[C@@H](O)C1)c1ccc2cc(-c3n[nH]c4c3CCC(C)(C)C4)[nH]c2c1` [Example 110], 7 nM; in that of `CN(C(=O)c1ccccc1)c1ccc2cc(-c3n[nH]c4c3CCC(C)(C)C4)[nH]c2c1` [Example 30], 10 nM.
Same read-out and setting: in the case of `CC1(C)CCc2c(-c3cc4ccc(N(CCO)C(=O)C(O)C5CCCOC5)cc4[nH]3)n[nH]c2C1` (stereo not shown) [Example 246] it was 7 nM.
Same read-out and setting: in the case of `COC1CCCC(C(=O)N(C)c2ccc3cc(-c4n[nH]c5c4CCC(C)(C)C5)[nH]c3c2)C1` (stereo not shown) [Example 100] it was 5 nM; in that of `CC(C)OCC(=O)N(C)c1ccc2cc(-c3n[nH]c4c3CCCC4)[nH]c2c1` [Example 359], 21 nM.
`CN(C(=O)C1CCCC1)c1ccc2cc(-c3n[nH]c4c3CCC(C)(CO)C4)[nH]c2c1` (stereo not shown) [Example 349]: the IC50 is 2 nM.
On to `CC1(C)CCc2c(-c3cc4ccc(N(CCO)C(=O)[C@H]5CC[C@@H](O)CC5)cc4[nH]3)n[nH]c2C1` [Example 248], for which the IC50 was 2 nM.
For the compound `CO[C@@H]1CCCN(CC(=O)N(C)c2ccc3cc(-c4n[nH]c5c4CCC(C)(C)C5)[nH]c3c2)C1` [Example 115], the half-inhibitory concentration (IC50) was 4 nM.
The same measure, in the same setting: in the case of `CC1(C)CCc2c(-c3cc4ccc(N(CCO)C(=O)CN5CCCCCC5=O)cc4[nH]3)n[nH]c2C1` [Example 256] it was 1 nM.
On the same count and under the same terms, in the case of `CCCOCCNC(=O)c1ccc2[nH]c(-c3n[nH]c4c3CCC(C)(C)C4)cc2c1` [Example 308] it was 49 nM; in that of `CC1(C)CCc2c(-c3cc4cc(C(=O)N5CCC(O)CC5)ccc4[nH]3)n[nH]c2C1` [Example 302], 39 nM.
For the compound `CC(C)(C)CNC(=O)c1ccc2cc(-c3n[nH]c4c3CCC(C)(C)C4)[nH]c2c1` [Example 11], the IC50 is 36 nM.
The same measure, in the same setting: in the case of `CCN(C(=O)CN1CCCCCC1=O)c1ccc2cc(-c3n[nH]c4c3CCC(C)(C)C4)[nH]c2c1` [Example 270] it was 2 nM; in that of `CN(C(=O)CN1CCOC1=O)c1ccc2cc(-c3n[nH]c4c3CCC(C)(C)C4)[nH]c2c1` [Example 154], 2 nM; in that of `COCCN(C(=O)C(C)C1CCOCC1)c1ccc2cc(-c3n[nH]c4c3CCC(C)(C)C4)[nH]c2c1` (stereo not shown) [Example 264], 10 nM.
The same measure, in the same setting: in the case of `CN(C(=O)[C@@H]1CCCO1)c1ccc2cc(-c3n[nH]c4c3CCC(C)(C)C4)[nH]c2c1` [Example 139] it was 2 nM.
The same measure, in the same setting: the figure for `CN(C(=O)COC1CCOC1)c1ccc2cc(-c3n[nH]c4c3CCC(C)(C)C4)[nH]c2c1` (stereo not shown) [Example 87] is less than 3 nM; for `CC1(C)CCc2c(-c3cc4cc(C(=O)Nc5ccccc5)ccc4[nH]3)n[nH]c2C1` [Example 293] it is 263 nM; for `CC(=O)N(CCO)c1ccc2cc(-c3n[nH]c4c3CCC(C)(C)C4)[nH]c2c1` [Example 214] it is less than 3 nM.
Take `CN(C(=O)C1CCC(=O)N1)c1ccc2cc(-c3n[nH]c4c3CCC(C)(C)C4)[nH]c2c1` (stereo not shown) [Example 128]: the IC50 was 2 nM.
Still for that read-out and setting: in the case of `CO[C@H]1CC[C@@H](C(=O)N(C)c2ccc3cc(-c4n[nH]c5c4CCC(C)(C)C5)[nH]c3c2)CC1` [Example 85] it was 4 nM.
Still for that read-out and setting: the figure for `CC1CCC(=O)N1CC(=O)N(C)c1ccc2cc(-c3n[nH]c4c3CCC(C)(C)C4)[nH]c2c1` (stereo not shown) [Example 136] is 2 nM.
Take `CCC(=O)N(C)CC(=O)N(C)c1ccc2cc(-c3n[nH]c4c3CCC(C)(C)C4)[nH]c2c1` [Example 125]: the IC50 was 1 nM.
As for `CN(C)CCCN(C(=O)CC1CCOCC1)c1ccc2cc(-c3n[nH]c4c3CCC(C)(C)C4)[nH]c2c1` [Example 226], the concentration for half-maximal inhibition (IC50) is 2 nM.

The experiment is the same for the next values; noted with them: at 30 nM test compound; read-out: ITK inhibitory rate (%).
Turning to `CC(C)C(=O)N(C)[C@@H](C)C(=O)N(C)c1ccc2cc(-c3n[nH]c4c3CCC(C)(C)C4)[nH]c2c1` [Example 204], the inhibition at 0.03 µM amounted to 49.2%.

The values above are taken from patent US8299070B2, “Indole compounds and pharmaceutical use thereof” (Japan Tobacco Inc., priority 2009, dated 2012).
